In assay [1] the test system is TiRP tumor bearing mice. Nature of the assay: Tumor-induced splenomegaly in TiRP tumor bearing mice (spleen weight). The format is in vivo. Conditions: 5 mg/kg i.p. daily from tumor size around 500 mm^3 until sacrifice. The text has this:
TiRP mice have been created by crossing Ink4a/Arf^flox/flox mice with mice carrying a transgenic construct controlled by the tyrosinase promoter and driving the expression of H-Ras^12V and Trap1a which encodes a MAGE-type tumor antigen […]; the promoter is separated from the coding region by a stop cassette made of a floxed self-deleting CreER (Huijbers et al., 2006, Cancer Res 66, 3278-3286). Those mice were backcrossed to a B10.D2 background and bred to homozygosity. TCR[…] mice heterozygous for the H-2Ld/[…]-43-specific TCR transgene were kept on the B10.D2;Rag1^-/- background ([…] et al., 2004, J Immunol 172, 5069-5077). DBA/2 mice and C57BL/6J mice were used in tumor transplantation and mice immunization experiments. All mice used in this study were produced under specific pathogen free (SPF) conditions at the animal facility of the de Duve Institute. All the rules concerning animal welfare have been respected according to the 2010/63/EU Directive. All procedures were performed with the approval of the local Animal Ethical Committee, with reference 2015/UCL/MD/15. A fresh solution of […]-Tamoxifen was prepared by dissolving […]-Tamoxifen ([…]®) in 100% ethanol and mineral oil (ratio 1:9) followed by 30 min sonication, and injected subcutaneously (2 mg/200 μL per mouse) in the neck area of gender-matched 7 weeks old TiRP mice. Tumor appearance was monitored daily and tumors were measured three times/week. Tumor volume (in mm^3) was calculated by the following formula: Volume=width^2×length/2. C57BL/6 mice were injected subcutaneously with 1 million B16F1 or B16F10 melanoma cells at an age between 6 to 8 weeks. The mice received daily injections of guanabenz (5 mg/kg, i.p.) or PBS when the tumor size was around 100 mm^3. Mice were sacrificed when the tumor in control group reached 1,000 mm^3. Spleen were isolated and weighted. […] TiRP tumor bearing mice received daily injections of clonidine (5 mg/kg, i.p.), romifidine (5 mg/kg, i.p.) or PBS when the tumor size was around 500 mm^3. […] Spleen were isolated and spleen weight was measured with an analytical balance.

In assay [2] the test system is BALB/c mice bearing CT26 colon carcinomas. Nature of the assay: Splenomegaly in mice bearing CT26 colon carcinomas, agonist/antagonist evaluation. The format is in vivo. As to conditions: each drug 5 mg/kg i.p. daily from tumor size around 50 mm^3. As to the method:
B16F1, B16F10 melanoma cells, and CT26 colon carcinoma cells were cultured in IMDM medium supplemented with 10% Fetal bovine serum (FBS). […] For evaluation of phentolamine on the effect of clonidine and guanabenz, the mice were randomized into different groups when tumors size arrived around 50 mm^3 and received daily injections of guanabenz (5 mg/kg, i.p.), phentolamine (5 mg/kg, i.p.), propranolol (5 mg/kg, i.p.), a mix of guanabenz (5 mg/kg, i.p.) and phentolamin (5 mg/kg, i.p.), clonidine (5 mg/kg, i.p.), a mix of clonidine (5 mg/kg, i.p.) and phentolamin (5 mg/kg, i.p.), a mix of clonidine (5 mg/kg, i.p.) and propranolol (5 mg/kg, i.p.) or vehicle control. Tumor size was measured every 2 days and mice were sacrificed when the tumor in control group reached 1,000 mm^3. Spleen were isolated and spleen weight was measured with an analytical balance. Spleen from mice of same age without tumors were used as controls.

For assay [3], the system named is mice transplanted with JAK2V617F mutated bone marrow. The experiment in a line: Splenomegaly induced by myelofibrosis (JAK2V617F mutated bone marrow transplantation). The format is in vivo. Conditions: for spleen weight (myelofibrosis-induced splenomegaly), prevention: treatment started one week after bone marrow transplantation, 5 mg/kg daily for three weeks; for spleen weight (myelofibrosis-induced splenomegaly), treatment: treatment started three weeks after bone marrow transplantation, splenomegaly already formed, 5 mg/kg daily for two weeks.

In assay [4] the test system is Adra2a KO mice. Conditions: romiplostim 1 mg/kg s.c. days 1, 8, 15, 5 mg/kg i.p. daily for two weeks from day 8. As to the method: (§1) 8-week female C57BL/6 J wild-type and Adra2a KO mice were administered saline or 1 mg/kg of romiplostim by a subcutaneous injection into the neck skin on days 1, 8 and 15. Clonidine or guanabenz were administrated i.p. at a dose of 5 mg/kg daily for two weeks starting from day 8. Mice were dissected on day 22 and spleen weight were measured. After killing, peripheral blood was drawn by cardiac puncture, the platelet concentration was measured by Cell Counter Analyzer MS9-5V.

For assay [5], the system named is C57BL/6 J wild-type mice. Conditions: romiplostim 1 mg/kg s.c. days 1, 8, 15, 5 mg/kg i.p. daily for two weeks from day 8. As to the method: as §1
For assay [6], the system named is C56BL/6 Wildtype mice implanted with MC38 colon carcinomas. Nature of the assay: Tumor-induced splenomegaly, MC38 colon carcinomas in wildtype mice. The format is in vivo. As to conditions: 5 mg/kg i.p. daily from tumor size around 50 mm^3. As to the method: (§2) C56BL/6 Wildtype or C56BL/6 Adra2a KO mice were implanted with MC38 colon carcinomas and received daily injections of vehicle control, guanabenz or clonidine (5 mg/kg, i.p.) when the tumor size was around 50 mm^3, until the day of sacrifice. Spleen weight were taken at the time of mice dissection.

Assay [7] deals with C56BL/6 Adra2a KO mice implanted with MC38 colon carcinomas. The experiment in a line: Tumor-induced splenomegaly, MC38 colon carcinomas in Adra2a KO mice. As to conditions: 5 mg/kg i.p. daily from tumor size around 50 mm^3. The format is in vivo. Here is the method: as §2
Assay [8] concerns TiRP-tumor bearing mice. Conditions: TiRP-tumor bearing mice with ACT of 10 million P1A-specific CD8+ T cells; each drug 5 mg/kg i.p. daily from tumor size around 500 mm^3.
The subject of assay [9] is flatworm-induced splenomegaly (schistosomiasis). Conditions: cited from earlier work.
In assay [10] the test system is B16F1 tumor-bearing mice. Nature of the assay: Tumor-induced splenomegaly in B16F1 tumor-bearing mice (spleen weight). The format is in vivo. As to conditions: 5 mg/kg i.p. daily from tumor size around 100 mm^3. Here is the method: (§3) B16F1, B16F10 melanoma cells, and CT26 colon carcinoma cells were cultured in IMDM medium supplemented with 10% Fetal bovine serum (FBS). C57BL/6 mice were injected subcutaneously with 1 million B16F1 or B16F10 melanoma cells at an age between 6 to 8 weeks. The mice received daily injections of guanabenz (5 mg/kg, i.p.) or PBS when the tumor size was around 100 mm^3. Mice were sacrificed when the tumor in control group reached 1,000 mm^3. Spleen were isolated and weighted. […] TiRP tumor bearing mice received daily injections of clonidine (5 mg/kg, i.p.), romifidine (5 mg/kg, i.p.) or PBS when the tumor size was around 500 mm^3. Mice were sacrificed when the tumor in control group reached 1,500 mm^3. Spleen were isolated and spleen weight was measured with an analytical balance.

The subject of assay [11] is B16F10 tumor-bearing mice. Nature of the assay: Tumor-induced splenomegaly in B16F10 tumor-bearing mice (spleen weight). As to conditions: 5 mg/kg i.p. daily from tumor size around 100 mm^3. The format is in vivo. As to the method: as §3
Assay [12] concerns DBA/2 mice. Nature of the assay: Splenomegaly induced by virus-mediated (Chadox_li_P1A prime, MVA_P1A boost) immunization. The format is in vivo. Conditions: 5 mg/kg 2 hours before and daily after immunization, two weeks.
Assay [13] has as its system C57BL/6J mice. Nature of the assay: Splenomegaly induced by protein-mediated (Ovalbumin) immunization. The format is in vivo. Conditions: 5 mg/kg 2 hours before and daily after immunization, one week. As to the method: C57BL/6J mice were immunized once by intraperitoneal (i.p.) injection of 200 μg of OVA protein adsorbed onto Alhydrogel adjuvant 2% (Sigma Aldrich®). These mice were administered 100 μg (5 mg/kg) of guanabenz 2 hours before the immunization and daily after the immunization. […] One week after the immunization, mice were sacrificed, the spleen of each mouse was collected, and spleen weight was measured with an analytical balance.

In assay [14] the test system is patient with obesity-related diseases, such as fatty liver. Conditions: cited from earlier work.

Molecules are shown by their SMILES.

Take `Clc1cccc(Cl)c1N=C1NCCN1` [clonidine]: the “spleen weight (tumor-induced splenomegaly)” value is given as “TiRP tumor-induced splenomegaly is inhibited” in assay [1], “inhibit tumor-induced splenomegaly” in assay [6] and “no inhibition is observed” in assay [7]. In addition, the “spleen weight / spleen size” value was “reduced the spleen size” in assay [2] and “reduced spleen size” in assay [8]. Also, the “spleen weight (myelofibrosis-induced splenomegaly), prevention” value in assay [3] is “significantly reduced the splenomegaly”. The “spleen weight (myelofibrosis-induced splenomegaly), treatment” value in assay [3] is reported as “significantly reduced the splenomegaly”. For the same molecule, the “spleen weight (romiplostim-induced splenomegaly)” value in assay [4] is “not in Adra2a KO mice”; in assay [5], “significantly reduced the splenomegaly”.

With `CN1C[C@H](C(=O)N[C@]2(C)O[C@@]3(O)[C@@H]4CCCN4C(=O)[C@H](Cc4ccccc4)N3C2=O)C=C2c3cccc4[nH]cc(c34)C[C@H]21` [ergotamine], the splenomegaly entry in [9] is on record as “reduced flatworm-induced splenomegaly”.

Consider `N=C(N)N/N=C/c1c(Cl)cccc1Cl` [guanabenz], for which the “spleen weight (tumor-induced splenomegaly)” value in assay [1] is on record as “can reverse the tumor-induced splenomegaly”; in assay [10], “can reverse the tumor-induced splenomegaly”; in assay [11], “can reverse the tumor-induced splenomegaly”; in [6], “inhibit tumor-induced splenomegaly”; in assay [7] it was “no inhibition is observed”. Also, the “spleen weight / spleen size” value in assay [2] is “reduced the spleen size”. Also, the “spleen weight (immunization-induced splenomegaly)” value in assay [12] and in [13] was “inhibits splenomegaly” throughout. Besides, the “spleen weight (myelofibrosis-induced splenomegaly), prevention” value in assay [3] is on record as “significantly reduced the splenomegaly”. Further, the “spleen weight (myelofibrosis-induced splenomegaly), treatment” value in assay [3] was “significantly reduced the splenomegaly”. For the same molecule, the “weight of the spleen” value in assay [14] was “promoting a decrease in the weight of the spleen”.

`Fc1cccc(Br)c1NC1=NCCN1` [romifidine]: in assay [1], the “spleen weight (tumor-induced splenomegaly)” value was “TiRP tumor-induced splenomegaly is inhibited”.

(Values after US20230149360A1, “ALPHA-2 ADRENERGIC RECEPTOR AGONISTS FOR THE PREVENTION AND/OR THE TREATMENT OF SPLEEN DISORDERS” (UNIVERSITÉ CATHOLIQUE DE LOUVAIN, priority 2020, published 2023).)
